Measurements as given in patent US10273313B2, “Multimeric mannosides, a process for preparing the same and their uses as a drug” (CENTRE NATIONAL DE LA RECHERCHE SCIENTIFIQUE, priority 2012, dated 2019).

Columns and labels:
[1] = tested on: AIEC strain LF82 adhesion to T84 intestinal epithelial cells; assay: Adhesion assay on T84 cells with thiazolylaminomannosides (Example 22.3); format: cell-based, Escherichia coli
Description: T84 Intestinal Epithelial cells (overexpressing the receptor CEACAM6) were beforehand incubated for 1 h with the synthetic thiazolylaminomannosides 6-20 (examples 3-17) at different concentrations. Each compound was tested four times at concentrations of 0.1, 1, 10 and 100 μM.
The cells were then infected in the presence of inhibitory compounds by the AIEC strain of reference LF82 for 3 hours at a multiplicity of infection of 10 bacteria to a cell. After 3 h of incubation, the monolayer was washed and the number of AIEC bacteria associated with cells was counted. The level of adhesion of AIEC LF82 strain in the presence of inhibitors (residual adhesion) was expressed relatively to the level of adherence in the absence of any treatment (considered 100%) (FIG. 10).

FimH [2] = target: T1, FimH (Escherichia coli, UniProt P08191); format: binding; details: competitive ELISA
Description: Journal of the American Society for Mass Spectrometry, 2009. […] Tested compounds were added to wells following with FimH treatment.
Plates were coated with 100 μl of 10 mg/ml solution of RNAse-B in 100 mM carbonate/bicarbonate buffer pH 9.6. […] 2 h. Then washed three times with 10 mM PBS containing 0.05% Tween-20. […] Wells were washed three times with 10 mM PBS+0.05% Tween-20. 100 μl of anti-body conjugated to horseradish peroxidase (1:5000) was added in buffer and incubated for 1 h at room temperature. Then washed three times with 10 mM PBS+0.05% Tween-20. Added 100 μl of TMB and incubated in dark for 2-5 min. The reaction was stopped with 100 μl/well 1N sulfuric acid. Plate absorbance was analyzed at 450 nm using microplate reader.
Target sequence in this assay (P08191 22-300): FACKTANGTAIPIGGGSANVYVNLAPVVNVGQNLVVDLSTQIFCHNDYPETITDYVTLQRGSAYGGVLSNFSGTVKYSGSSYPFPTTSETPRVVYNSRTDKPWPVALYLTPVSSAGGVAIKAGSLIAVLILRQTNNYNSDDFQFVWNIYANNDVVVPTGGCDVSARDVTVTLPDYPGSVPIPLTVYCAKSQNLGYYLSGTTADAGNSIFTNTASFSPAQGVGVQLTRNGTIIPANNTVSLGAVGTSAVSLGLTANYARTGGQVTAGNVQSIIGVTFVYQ

[3] = tested on: AIEC LF82 bacteria on colonic tissue from transgenic mice expressing human CEACAM6; assay: Ex-vivo adhesion assay on colonic tissue of CEABAC10 mice; set-up: species or system CEABAC10 transgenic mice
Description: E. coli strain LF82 was isolated from a chronic ileal lesion of a patient with Crohn's disease (CD). Bacteria were grown routinely in Luria-Bertani (LB) broth overnight at 37° C.
Adhesion assay of AIEC LF82 bacteria were performed using colonic tissue from transgenic mice expressing the human CEACAM6 protein (C. H. Chan, C. P. Stanners “Novel mouse model for carcinoembryonic antigen-based therapy”, Mol Ther. 2004; 9, 775-785). Briefly, 10 to 12-week-old FVB/N CEABAC10 transgenic mice were anesthetized, euthanized by cervical dislocation and colons were removed. Colons were washed twice in phosphate buffer saline (PBS) and were segmented in 4 independent loops of ≈0.6 cm. A volume of 100 μL of LF82 bacteria at 2×10^6 bacteria/mL in PBS or of a mix of LF82 bacteria+D-mannose (1 μmol and 10 μmol) or compound 13 (0.1 μmol and 0.01 μmol) were injected into the loops. Loops were incubated 1 h at 37° C. in an atmosphere containing 5% of CO2, and then opened and washed 4 times in PBS. Tissues were homogenized, appropriately diluted and plated onto Luria-Bertani agar plates containing ampicillin (100 μg/mL) and erythromycin (20 μg/mL) to select AIEC LF82 bacteria.
Entire colons from CEABAC10 mice were collected and washed two times with PBS. The colon was divided in 4 isolated loops and 100 μL of a bacterial suspension containing […] bacteria/mL with or without inhibitory compounds were injected into the loops. D-mannose was tested at a dose of 1 and 10 μmol and monovalent 13 was tested at a dose of 0.01 and 0.1 μmol. After a 1 h-period of incubation, samples were extensively washed and homogenized to numerate adherent bacteria. Bacterial adhesion was expressed as percentages of residual adhesion (100% corresponds to the adhesion in absence of any compound).

human Jurkat T-cell line = assay: Toxicity of 13 towards Jurkat T-cells; format: cell-based; details: 100 nM
[4] = tested on: CD-associated E. coli strain AIEC LF82; assay: Hemagglutination inhibition (HAI) with AIEC LF82, guinea pig erythrocytes; format: cell-based, Escherichia coli
Description: AIEC adhesion to the gut occurs through the binding of FimH adhesins to the mannosylated glycans of intestinal cells. This scenario was first mimicked here with the highly mannosylated glycocalyx of guinea pig erythrocytes.
A two-fold dilution series of the antagonists was added to wells containing guinea pig erythrocytes and AIEC LF82 bacteria. The formation of the cross-linked network (hemagglutination) due to the interaction of the E. coli FimH adhesins with the glycocalyx of the erythrocytes was prevented at a certain concentration of inhibitors. The lowest concentration at which hemagglutination is still inhibited is defined as the inhibition titer of the antagonist. HM was included in the assay to obtain a relative inhibitory concentration (rIC) for the antagonists by dividing the inhibitory concentration (IC) of the substance of interest by the value for HM. In fact, rICs are more accurate than rough inhibition titers to compare the potency of antagonists evaluated in different assays.

Caco-2 cells = assay: Blockage of cytotoxic effect of microparticle-FimH, flow cytometry; format: cell-based; details: Caco2
Description: It was shown that upon binding of FimH adhesin to uroplakin UPIIIa its cytoplasmic tail undergoes phosphorylation on a specific threonine residue by casein kinase II, followed by an elevation of intracellular calcium triggering apoptosis (Thumbikat, P.; Berry, R. E.; Zhou, G.; Billips, B. K.; Yaggie, R. E.; Zaichuk, T.; Sun, T.-T.; Schaeffer, A. J.; Klumpp, D. J. PLoS Pathog 2009, 5, e1000415). […] It is needed to mentioned that according to our observations that Caco2 cells, unlike human blood cells, (Bilyy R. O.; Shkandina, T.; Tomin, A.; Muñoz, L E.; Franz, S.; Antonyuk, V.; Kit, Y. Y.; Zirngibl, M.; Fürnrohr, B. G.; Janko, C.; Lauber, K.; Schiller, M.; Schett, G.; Stoika, R. S.; Herrmann, M., J. Biol. Chem. 2012, 287, 496-503) are very quickly converted from apoptotic to secondary necrotic (PI-positive). […]
Cell viability was assessed by a trypan blue exclusion test. […]
Apoptotic cells were identified by using annexin V-FITC and PI, according to the manufacturer's protocol. […] Cells were then resuspended in a solution of annexin V-FITC and PI prepared in Ringer buffer, incubated 30 min at 4° C. in the dark, and analyzed on a FACS scan flow cytometer (BD Biosciences). A minimum of 10,000 events per sample was recorded. […]

UTI89 E. coli = assay: Inhibition of haemagglutination (Example 19); format: cell-based, Escherichia coli; details: two-fold dilution from 1 mM
Description: Interaction of E. coli FimH adhesins with the glycocalyx of guinea pig erythrocytes forms a cross-linked network into the wells. Glycoconjugates added in a two-fold dilution series prevents the agglutination reaction. The inhibition titer is defined as the lowest concentration of the glycoconjugate at which haemagglutination is still inhibited. UTI89 E. coli were grown statically overnight in LB at 37° C., washed three times in ice-cold phosphate-buffered saline and resolubilized. A two-fold dilution of glycoconjugates was prepared in 25 μL 20 mM HEPES pH 7.4 with 150 mM NaCl, starting from 1 mM as the highest concentration. The bacterial solution (25 μL) was added to the two-fold dilution series of the compound. Finally 50 μl of guinea pig red blood cells, washed in buffer and diluted to 5%, were added to a final 100 μL and left on ice for 30 min. before read-out. Due to serial dilutions, the maximal error is ±one well, or a factor two (FIG. 2).

FimH [5] = target: T1, FimH; assay: Isothermal titration calorimetry of compound 6; format: binding
Description: For compound 6 (example 3), the enthalpy, the affinity equilibrium constant Ka and the molar ratio have moreover been measured using ITC. Integrated heat effects were analyzed by nonlinear regression using a single-site binding model (Origin 7.0). The experimental data fitted to a theoretical titration curve gave the association constant (Ka), the enthalpy of binding (ΔH) and the molar ratio n. The entropic contribution to the affinity and the change in Gibbs free energy (ΔG) have been calculated from the equation ΔG=ΔH−TΔS=−RTlnKa, where T is the absolute temperature and R is the molar gas constant (8.314 J·mol−1·K−1).
Target sequence in this assay (P08191 22-179): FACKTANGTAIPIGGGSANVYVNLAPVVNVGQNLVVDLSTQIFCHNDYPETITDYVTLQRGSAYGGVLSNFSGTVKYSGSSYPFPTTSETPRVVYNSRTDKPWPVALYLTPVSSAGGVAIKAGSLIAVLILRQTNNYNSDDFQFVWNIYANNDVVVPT

lectin domain of FimH = target: T2, lectin domain of FimH (Escherichia coli, UniProt P08191); assay: Surface plasmon resonance solution competition assay; format: binding; details: solution affinity
T2 construct: The lectin domain of FimH was expressed as described previously and purified at pH 4.0; made in house
T2 sequence (P08191 22-179): as above
Description: The affinity of the compounds was first evaluated and then measured in a surface plasmon resonance solution competition assay. The lectin domain of FimH was expressed as described previously and purified at pH 4.0 in 50 mM HCOOH on a SPFF (sulfopropyl fast flow) ion exchange column (GE Healthcare). A CM5 sensor chip (Biacore, GE Healthcare) has been coated with a layer of amino-functionalized monovalent heptyl mannoside to 60 RU (response units) and the kinetics of FimH binding to the sensor chip has been determined. All data collection have been performed in HBS buffer complemented with 3 mM EDTA and 0.01% Tween20. Regeneration was done with a single 10 s injection of 100 mM NaOH in water.
The solution affinity provided by the Biacore software uses the equation (B−A−Kd)/2+(0.25*(A+B+Kd)^2−A*B)^0.5, with B presenting the uninhibited concentration of FimH, and A the variable compound concentration.

human Jurkat cells = assay: Prevention of FimH-induced apoptosis of Jurkat cells (24 h)
Description: Eventually, we tested the ability of mannose-based inhibitors to prevent the induction of cell death of human Jurkat cells under the treatment with FimH. We cultures cells with the indicated compound for 24 h and counter percentage of viable (AnV−/Pi−), apoptotic (AnV+/Pi−) and necrotic cells (AnV+/PI+). […] 2. […] 3.
Apoptosis was induced by UV-B irradiation with 90 mJ/cm^2, apoptosis of human PMN cells was induced by 24 h aging. To quantify the rate of apoptosis, cells were analyzed by flow cytometry or fluorescent microscopy. Amongst other features, apoptosis is characterized by blebbing of the cellular membrane, leading to a decrease in the forward scatter (FSC) and an increase in the sideward scatter (SSC). For detection of phosphatidylserine (PS) exposure on the cell surface staining with FITC conjugated annexin V (Böhringer, Mannheim, Germany) in combination with propidium iodide (PI) (AxV/PI) was performed. 200.000 cells were stained for 30 minutes at 4° C. with 200 ng of AxV-FITC and 500 ng propidium iodide (PI) in 500 μl Ringer's solution [Nicoletti, Migliorati, Pagliacci, Grignani and Riccardi, A rapid and simple method for measuring thymocyte apoptosis by propidium iodide staining and flow cytometry. J Immunol Methods, 1991. 139.271-9]. The samples were immediately analyzed by flow cytometry of fluorescent microscopy.

Cc1nc(-c2cnccn2)sc1C(=O)c1cnc(N[C@H]2OC(CO)[C@@H](O)[C@H](O)C2O)s1 (mixture of isomers) [Compound 13, 2-(α-D-mannopyranosyl)amino-5-(4-methyl-2-(pyrazin-2-yl)thiazole-5-carbonyl)thiazole]
Residual adhesion ([1]; 0.1 μM): 57.6%
Inhibitory effect on adhesion ([1]; 100 nM): significant inhibitory effect
AIEC remaining attached to the cells (residual adhesion) ([1]; 1 μM): 14%
Residual adhesion ([1]; 10 μM): 2.12%
rIC relative to HM ([1]; dose-dependent inhibition similar to HM at 100-fold lower concentration): ~0.01
Level of inhibition compared to the HM reference (FimH [2]): significantly higher level of inhibition
Concentration blocking FimH binding towards oligomannose glycans (FimH [2]; RNAseB substrate): 5 nM
Efficiency relative to D-mannose [3]: 100 fold
Bacterial adhesion ([3]; 0.1 μmol, 1 h): significant decrease
Toxicity towards human blood cells (Jurkat T-cell line) (human Jurkat T-cell line): nontoxic
Inhibitory potency in HAI (in words) [4]: second most potent compound
Effect on amount of dead cell in population (Caco-2 cells; 100 nM alone): no significant effect
Dead cells in population (Caco-2 cells; co-treatment with microparticles-FimH and 100 nM): 16.5%

CC(=O)c1cnc(N[C@H]2O[C@H](CO)[C@@H](O)[C@H](O)[C@@H]2O)s1 [Compound 6, 5-acetyl-2-((α-D-mannopyranosyl)amino)thiazole]
Inhibitory potency in haemagglutination (FIG. 2) (UTI89 E. coli): equivalent to the one for HM
Kd (FimH [5]): 197 nM
Inhibitory potency in HAI (in words) [4]: less potent than HM
Kd (lectin domain of FimH; measurement 1): 216 nM
Kd (lectin domain of FimH; measurement 2): 220 ± 7.71 nM
Prevention of apoptosis induction by FimH (human Jurkat cells; 500 nM): effectively prevented apoptosis induction
Toxicity to Jurkat cells (human Jurkat cells; tested concentrations, 24 h): not toxic
